# Experimental data taken from patent publication US20230183237A1, “COMPETITIVE AND NONCOMPETITIVE INHIBITORS OF THE MUSCARINIC ACETYLCHOLINE RECEPTOR M5” (Vanderbilt University, priority 2020, published 2023).
# pIC50: −log10 of the molar value. Like-named read-outs stand apart in the source and are kept apart here.
# Biological target: T1, hM5 (Homo sapiens, UniProt P08912)
# T1 construct: expressed in transfected cells
# T1 sequence (P08912 1-532): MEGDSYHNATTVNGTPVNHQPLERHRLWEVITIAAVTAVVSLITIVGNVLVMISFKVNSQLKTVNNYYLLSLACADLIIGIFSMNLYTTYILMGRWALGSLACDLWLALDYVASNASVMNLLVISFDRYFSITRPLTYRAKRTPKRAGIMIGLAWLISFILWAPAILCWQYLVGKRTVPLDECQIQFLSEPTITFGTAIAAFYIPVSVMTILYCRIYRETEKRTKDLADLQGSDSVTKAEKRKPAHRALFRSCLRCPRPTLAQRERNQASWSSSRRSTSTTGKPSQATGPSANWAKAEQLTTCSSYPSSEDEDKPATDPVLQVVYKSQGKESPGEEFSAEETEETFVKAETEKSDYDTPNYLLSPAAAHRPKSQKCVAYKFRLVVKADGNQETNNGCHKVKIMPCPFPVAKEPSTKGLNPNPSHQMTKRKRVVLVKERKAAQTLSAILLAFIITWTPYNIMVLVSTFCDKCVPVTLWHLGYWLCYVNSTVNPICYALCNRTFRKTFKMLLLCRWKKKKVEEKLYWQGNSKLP
# Assay: Calcium mobilization concentration-response (IC50 vs EC80 acetylcholine), CHO hM5
# Format: cell-based
# Conditions: CELL LINE hM5, read-out: IC50
# In short: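 CHO cells stably expressing hM5, dye-loaded, in HBSS/20 mM HEPES/2.5 mM probenecid, pH 7.4. Compounds were pre-incubated 140 s before an EC80 acetylcholine challenge, with calcium flux read kinetically.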
# [1] = calcium mobilization, EC80 acetylcholine addition
pIC50 (vs EC80 acetylcholine),pIC50 [1],SMILES
6.63,,"Cc1nsc(S(=O)(=O)N2CCC(c3cn4ncnc4cc3Cl)CC2)n1 [Compound 608, 5-((4-(7-Chloro-[1,2,4]triazolo[1,5-a]pyridin-6-yl)piperidin-1-yl)sulfonyl)-3-methyl-1,2,4-thiadiazole]"
,5.85,"Cc1cc2ncnn2cc1C1CCN(S(=O)(=O)c2cnc(Cl)c(C)c2)CC1 [Compound 57, 6-(1-((6-chloro-5-methylpyridin-3-yl)sulfonyl)piperidin-4-yl)-7-methyl-[1,2,4]triazolo[1,5-a]pyridine]"
7.34,,"Cc1cc(S(=O)(=O)N2CCC(c3cn4ncnc4cc3C(F)(F)F)CC2)sn1 [Compound 495, 3-methyl-5-((4-(7-(trifluoromethyl)-[1,2,4]triazolo[1,5-a]pyridin-6-yl)piperidin-1-yl)sulfonyl)isothiazole]"
,7.85,"Cc1cc2c(cc1C1CCN(S(=O)(=O)c3cnn(C)c3Cl)CC1)OCO2 [Compound 372, 1-((5-chloro-1-methyl-1H-pyrazol-4-yl)sulfonyl)-4-(6-methylbenzo[d][1,3]dioxol-5-yl)piperidine]"
,7.77,"Cc1cc2nccn2nc1C1CCN(S(=O)(=O)c2cnn3c2CCC3)CC1 [Compound 246, 6-(1-((5,6-dihydro-4H-pyrrolo[1,2-b]pyrazol-3-yl)sulfonyl)piperidin-4-yl)-7-methylimidazo[1,2-b]pyridazine]"
,< 5.00,"Cc1cc2ncnn2nc1C1CCN(S(=O)(=O)c2cnc3n2CCC3)CC1 [Compound 208, 6-(1-((6,7-dihydro-5H-pyrrolo[1,2-a]imidazol-3-yl)sulfonyl)piperidin-4-yl)-7-methyl-[1,2,4]triazolo[1,5-b]pyridazine]"
6.23,,"[2H]C1([2H])CC(c2cn3ncnc3cc2F)CC([2H])([2H])N1S(=O)(=O)c1cc(C)ns1 [Compound 528, 5-((4-(7-fluoro-[1,2,4]triazolo[1,5-a]pyridin-6-yl)piperidin-1-yl-2,2,6,6-d4)sulfonyl)-3-methylisothiazole]"
,< 5.00,"O=S(=O)(c1ccc2ncsc2c1)N1CCC(c2cc3cc[nH]c3cn2)CC1 [Compound 25, 6-((4-(1H-pyrrolo[2,3-c]pyridin-5-yl)piperidin-1-yl)sulfonyl)benzo[d]thiazole]"
< 5.00,,"Cc1cc(C(F)(F)F)ncc1C1CCN(S(=O)(=O)c2cnc(C)n2C)CC1 [Compound 396, 5(1-((1,2-dimethyl-1H-imidazol-5-yl)sulfonyl)piperidin-4-yl)-4-methyl-2-(trifluoromethyl)pyridine]"
6.12,,"Cc1cc2ncnn2cc1C1(F)CCN(S(=O)(=O)c2cnn3cccnc23)CC1 [Compound 458, 6-(4-fluoro-1-(pyrazolo[1,5-a]pyrimidin-3-ylsulfonyl)piperidin-4-yl)-7-methyl-[1,2,4]triazolo[1,5-a]pyridine]"
,5.14,"Cc1cc2ncnn2cc1C1CCN(S(=O)(=O)c2cn(C)c(C)n2)CC1 [Compound 320, 6-(1-((1,2-dimethyl-1H-imidazol-4-yl)sulfonyl)piperidin-4-yl)-7-methyl-[1,2,4]triazolo[1,5-a]pyridine]"
7.66,,"[2H]C([2H])([2H])Oc1c(S(=O)(=O)N2CCC(c3cn4ncnc4cc3Cl)CC2)cnn1C [Compound 613, 7-chloro-6-(1-((5-(methoxy-d3)-1-methyl-1H-pyrazol-4-yl)sulfonyl)piperidin-4-yl)-[1,2,4]triazolo[1,5-a]pyridine]"
,5.54,"Cc1cc2ncnn2cc1C1CCN(S(=O)(=O)c2c(C)n[nH]c2C)CC1 [Compound 157, 6-(1-((3,5-dimethyl-1H-pyrazol-4-yl)sulfonyl)piperidin-4-yl)-7-methyl-[1,2,4]triazolo[1,5-a]pyridine]"
7.03,,"Cc1cc2ccnn2cc1C1CCN(S(=O)(=O)c2cnn(C)c2Cl)CC1 [Compound 470, 6-(1-((5-chloro-1-methyl-1H-pyrazol-4-yl)sulfonyl)piperidin-4-yl)-5-methylpyrazolo[1,5-a]pyridine]"
5.71,,"Cc1cc2ncccc2cc1C1CCN(S(=O)(=O)c2c(C)nn(C)c2C(F)(F)F)CC1 [Compound 445, 6(1-((1,3-dimethyl-5-(trifluoromethyl)-1H-pyrazol-4-yl)sulfonyl)piperidin-4-yl)-7-methylquinoline]"
6.54,,"Cc1cc2ncnn2cc1C1CCN(S(=O)(=O)c2cnc(Cl)s2)CC1 [Compound 523, 2-chloro-5-((4-(7-methyl-[1,2,4]triazolo[1,5-a]pyridin-6-yl)piperidin-1-yl)sulfonyl)thiazole]"
,< 5.00,"Cc1sc(C(N)=O)nc1C1=CCN(S(=O)(=O)c2ccc3c(c2)CCO3)CC1 [Compound 203, 4-(1-((2,3-dihydrobenzofuran-5-yl)sulfonyl)-1,2,3,6-tetrahydropyridin-4-yl)-5-methylthiazole-2-carboxamide]"

pIC50 (vs EC80 acetylcholine),pIC50 [1],SMILES
6.83,,"COc1c(S(=O)(=O)N2CCC(F)(c3cn4ncnc4cc3C)CC2)cnn1C [Compound 586, 6-(4-fluoro-1-((5-methoxy-1-methyl-1H-pyrazol-4-yl)sulfonyl)piperidin-4-yl)-7-methyl-[1,2,4]triazolo[1,5-a]pyridine]"
,< 5.00,"Cc1cc2nccn2nc1C1CCN(S(=O)(=O)c2cccnc2)CC1 [Compound 53, 7-methyl-6-(1-(pyridin-3-ylsulfonyl)piperidin-4-yl)imidazo[1,2-b]pyridazine]"
7.07,,"Cc1cc2ncnn2cc1C1(F)CCN(S(=O)(=O)c2cnn(C)c2C(F)F)CC1 [Compound 422, 6-(1-((5-(difluoromethyl)-1-methyl-1H-pyrazol-4-yl)sulfonyl)-4-fluoropiperidin-4-yl)-7-methyl-[1,2,4]triazolo[1,5-a]pyridine]"
,6.82,"Cc1c(S(=O)(=O)N2CCC(c3cn4ncnc4cc3C(F)(F)F)CC2)cnn1C [Compound 273, 6-(1-((1,5-dimethyl-1H-pyrazol-4-yl)sulfonyl)piperidin-4-yl)-7-(trifluoromethyl)-[1,2,4]triazolo[1,5-a]pyridine]"
5.67,,"Cc1cc2ncnn2cc1C1(F)CCN(S(=O)(=O)c2cn(C)nn2)CC1 [Compound 588, 6-(4-fluoro-1-((1-methyl-1H-1,2,3-triazol-4-yl)sulfonyl)piperidin-4-yl)-7-methyl-[1,2,4]triazolo[1,5-a]pyridine]"
,7.59,"Cc1cc2ncnn2cc1C1CCN(S(=O)(=O)c2c(C)nn(C)c2Cl)CC1 [Compound 138, 6-(1-((5-chloro-1,3-dimethyl-1H-pyrazol-4-yl)sulfonyl)piperidin-4-yl)-7-methyl-[1,2,4]triazolo[1,5-a]pyridine]"
,< 5.00,"Cc1cc2ncnn2cc1C1CCN(S(=O)(=O)c2cc(C(F)(F)F)nn2C)CC1 [Compound 146, 7-methyl-6-(1-((1-methyl-3-(trifluoromethyl)-1H-pyrazol-5-yl)sulfonyl)piperidin-4-yl)-[1,2,4]triazolo[1,5-a]pyridine]"
5.89,,"Cc1cc2ncccc2cc1C1CCN(S(=O)(=O)c2cnn(C)c2CC#N)CC1 [Compound 461, 2-(1-methyl-4-((4-(7-methylquinolin-6-yl)piperidin-1-yl)sulfonyl)-1H-pyrazol-5-yl)acetonitrile]"
,< 5.00,"Cc1ccncc1C1CCN(S(=O)(=O)c2cnc(C)n2C)CC1 [Compound 385, 3-(1-((1,2-dimethyl-1H-imidazol-5-yl)sulfonyl)piperidin-4-yl)-4-methylpyridine]"
,6.09,"Cc1cc2ncnn2cc1C1CCN(S(=O)(=O)c2cccc3nonc23)CC1 [Compound 168, 4-((4-(7-methyl-[1,2,4]triazolo[1,5-a]pyridin-6-yl)piperidin-1-yl)sulfonyl)benzo[c][1,2,5]oxadiazole]"
,5.96,"Cc1cc2ncnn2cc1C1CCN(S(=O)(=O)c2ncn(C)c2Cl)CC1 [Compound 321, 6-(1-((5-chloro-1-methyl-1H-imidazol-4-yl)sulfonyl)piperidin-4-yl)-7-methyl-[1,2,4]triazolo[1,5-a]pyridine]"
,6.63,"Cc1cc2ncnn2cc1C1CCN(S(=O)(=O)c2cnc3c(c2)C(C)CO3)CC1 (stereo not drawn) [Compound 136, 3-methyl-5-((4-(7-methyl-[1,2,4]triazolo[1,5-a]pyridin-6-yl)piperidin-1-yl)sulfonyl)-2,3-dihydrofuro[2,3-b]pyridine]"
,5.59,"Cc1cc2nccn2cc1C1CCN(S(=O)(=O)c2cc3c(cc2F)OCC3)CC1 [Compound 67, 6-(1-((6-fluoro-2,3-dihydrobenzofuran-5-yl)sulfonyl)piperidin-4-yl)-7-methylimidazo[1,2-a]pyridine]"
7.47,,"Cc1cc2ncccc2cc1C1CCN(S(=O)(=O)c2cnn(C)c2Cl)CC1 [Compound 417, 6-(1-((5-chloro-1-methyl-1H-pyrazol-4-yl)sulfonyl)piperidin-4-yl)-7-methylquinoline]"
6.57,,"CO[C@@H]1CN(S(=O)(=O)c2cnn(C)c2Cl)CC[C@H]1c1cn2ncnc2cc1C (single isomer, unassigned) [Compound 459]"
,6.73,"Cc1cc2ncnn2cc1C1=CCN(S(=O)(=O)c2cc3c(cc2C)OCC3C)CC1 (stereo not drawn) [Compound 84, 6-(1-((3,6-dimethyl-2,3-dihydrobenzofuran-5-yl)sulfonyl)-1,2,3,6-tetrahydropyridin-4-yl)-7-methyl-[1,2,4]triazolo[1,5-a]pyridine]"
